{"source": "paper PMC8742467", "about": "“Therapeutical interference with the epigenetic landscape of germ cell tumors: a comparative drug study and new mechanistical insights” (Clinical Epigenetics, 2022)", "test_system": "GCT cell lines", "assay": "XTT cell viability assay, GCT cell lines (pre-screen / summary)", "type": "cell-based, Human", "details": "first pre-screen, XTT; read-out: EC50", "description": "The […] (XTT) assays were performed as described previously. In summary, for GCT and fibroblast cell lines 5 × 10^3 cells (3 × 10^3 for UC, PCa and RCC cell lines) per 96-well were seeded and different drug concentrations (see Additional file 2: Fig. S2, Additional file 3: Fig. S3) or corresponding solvents were added to the cells the following day. For drug details see Additional file 12: Table S2 C. Each condition was analyzed in four technical replicates and EC50 values were calculated by GraphPad Prism v8.", "data": [{"compound": "NC(=O)C1CCCc2c1[nH]c1ccc(Cl)cc21", "note": "(centres unmarked) [Selisistat]", "values": [{"measurement": "EC50", "result": "> 50", "unit": "µM"}]}, {"compound": "NNCCc1ccc(NC(=O)CCCc2ccccc2)cc1", "note": "[Bizine]", "values": [{"measurement": "EC50", "result": "> 50", "unit": "µM"}]}]}
